Experimental data published in patent US3993683A, “Biphenylyl derivatives” (Boehringer Ingelheim GmbH, priority 1974, dated 1976).
Like-named read-outs stand apart in the source and are kept apart here.

What was measured:
[1] = tested on: thrombocyte aggregation in the platelet-rich plasma of healthy human test subjects; assay: Inhibition of collagen-induced thrombocyte aggregation (method of Born and Cross); format: cell-based; settings: 10^-4 mol/liter test compound, 10 minutes incubation at 37° C, vs untreated controls; for inhibition at 100 µM: Homo sapiens, 10 min
Source text: 1. The inhibiting action upon thrombocyte aggregation was ascertained by the method of Born and Cross, J. Physiol. 170, 397 (1964), in the platelet-rich plasma of healthy human test subjects, by photometrically ascertaning and registering the rate of decrease of the optical density after addition of commercial collagen containing 1 mgm of collagen fibrils per ml. The angle of inclination of the density curve is a measure of the rate of aggregaton (V max.). The point on the curve which corresponded to the greatest lightpermeability was used for calculation of the optical density (o.D.).
The collagen doses were held to a minimum, but still sufficiently large to result in an irreversible aggregation. Prior to addition of collagen, each plasma sale was incubated for 10 minutes at 37° C with various amounts of the test compound. To provoke maximum aggregation, about 0.01 ml of the collagen solution was added to 1 ml of platelet-rich plasma.
The values in Table I below represent the inhibition of the aggregation rate in % (V max) and the alteration of the optical density (O.D.) in %, compared with the untreated controls, i.e. without addition of the test compound.

non-anesthetized mice = assay: Prolonging effect upon the bleeding time (method of Duke); format: in vivo; settings: 10 mgm/kg per os, vs untreated animals; for change in vivo at 10 mg/kg: Mus musculus, po
Source text: 2. The prolonging effect upon the bleeding time was ascertained by the method of Duke, J. Amer. Med. Assoc. 15, 1185 (1910). 10 mgm/kg of the test compound were given per os to non-anesthetized mice. One or three hours after administration of the test compound, about 0.5 mm was cut off from the tail of each animal, and the exuded blood was carefully soaked up with filter paper at intervals of 30 seconds. The number of drops of blood so obtained was used as a measure for the bleeding time compared to untreated animals (5 animals/test).

white mice = assay: Acute toxicity after oral administration of a single dose; format: in vivo; settings: observation time 14 days
Procedure: (§1) The acute toxicity of the test compounds was determined in white mice (observation time: 14 days) after oral administration of a single dose.

[2] = as above; format: in vivo; settings: mouse, in vivo, po, white mice, observation time 14 days
Procedure: as §1

[3] = 1 h, 1 hour after administration, read-out: Prolongation of bleeding time in % after 1 hour
[4] = 3 h, 3 hours after administration, read-out: Prolongation of bleeding time in % after 3 hours
[5] = read-out: Inhibition in % of the aggregation rate (V max)
[6] = read-out: Inhibition in %: alteration of the optical density (O.D.)

Structure (SMILES)	Inhibition in % of the aggregation rate (V max) [1] [%]	Inhibition in %: alteration of the optical density (O.D.) [1] [%]	change in vivo at 10 mg/kg (non-anesthetized mice; [3]) [%]	change in vivo at 10 mg/kg (non-anesthetized mice; [4]) [%]	animals died (at the stated dose) (white mice)	Prolongation of bleeding time in % after 1 hour (non-anesthetized mice; 1 hour after administration) [%]	Prolongation of bleeding time in % after 3 hours (non-anesthetized mice; 3 hours after administration) [%]	inhibition at 100 µM [1, 5] [%]	inhibition at 100 µM [1, 6] [%]	LD50 at 336 h [2] [mg/kg]
COC(=O)C[S+]([O-])C(C)c1ccc(-c2ccccc2F)cc1 (single isomer, unassigned) [A, [1-(2'-fluoro-4-biphenylyl)-ethylsulfinyl]-acetic acid methyl ester]	32	45	136	66	1 out of 10	–	–	–	–	–
COC(=O)C[S+]([O-])C(C)c1ccc(-c2ccccc2F)cc1 (single isomer, unassigned) [B, [1-(2'-fluoro-4-biphenylyl)-ethylsulfinyl]-acetic acid methyl ester]	72	81	–	–	2 out of 5	142	56	–	–	–
COC(=O)C[S+]([O-])C(C)c1ccc(-c2ccccc2F)cc1 (single isomer, unassigned) [F, dextrorotatory [1-(2'-fluoro-4-biphenylyl)-ethylsulfinyl]-acetic acid methyl ester]	–	–	117	–	–	–	–	20	19	–
COC(=O)C[S+]([O-])C(C)c1ccc(-c2ccccc2F)cc1 (single isomer, unassigned) [G, levorotatory [1-(2'-fluoro-4-biphenylyl)-ethylsulfinyl]-acetic acid methyl ester]	13	27	–	–	–	129	–	–	–	–
CC(C)CCOC(=O)C[S+]([O-])C(C)c1ccc(-c2ccccc2F)cc1 (centres unmarked) [C, [1-(2'-fluoro-4-biphenylyl)-ethylsulfinyl]-acetic acid isoamyl ester]	–	–	112	49	1 out of 5	–	–	67	82	> 250
COC(=O)C[S+]([O-])C(C)(C)c1ccc(-c2ccccc2F)cc1 (centres unmarked) [D]	–	–	71	–	2 out of 5	–	–	37	48	> 250
COC(=O)C[S+]([O-])CCC(C)c1ccc(-c2ccccc2)cc1 (centres unmarked) [E, [3-(4-biphenylyl)-butyl-(1)-sulfinyl]-acetic acid methyl ester]	–	–	188	85	0 out of 5	–	–	92	95	> 250
CNC(=O)C[S+]([O-])C(C)c1ccc(-c2ccccc2F)cc1 (centres unmarked) [H, [1-(2'-fluoro-4-biphenylyl)-ethylsulfinyl]-acetic acid methyl amide]	–	–	64	–	0 out of 5	–	–	8	13	> 250
CC(c1ccc(-c2ccccc2F)cc1)[S+]([O-])CC(=O)N1CCCCC1 (centres unmarked) [I, [1-(2'-fluoro-4-biphenylyl)-ethylsulfinyl]-acetic acid piperidide]	–	–	122	–	0 out of 5	–	–	85	90	> 250
CC(c1ccc(-c2ccccc2F)cc1)[S+]([O-])CC(=O)N1CC[S+]([O-])CC1 (centres unmarked) [J, [1-(2'-fluoro-4-biphenylyl)-ethylsulfinyl]-acetic acid-(1-oxido-thiomorpholide)]	–	–	149	–	0 out of 5	–	–	16	31	> 250
C[S+]([O-])CC(O)c1ccc(-c2ccc(F)cc2)cc1 (centres unmarked) [K]	–	–	68	30	–	–	–	59	73	–
COC(=O)C[S+]([O-])CC(=O)c1ccc(-c2ccccc2)cc1 (centres unmarked) [L, [2-(4-biphenylyl)-2-oxo-ethylsulfinyl]-acetic acid methyl ester]	–	–	120	78	–	–	–	22	47	–
COC(=O)C[S+]([O-])CC(=O)c1ccc(-c2ccccc2F)cc1 (centres unmarked) [M, [2-(2'-fluoro-4-biphenylyl)-2-oxo-ethylsulfinyl]-acetic acid methyl ester]	–	–	90	39	–	–	–	97	95	–
O=C(O)C[S+]([O-])CC(=O)c1ccc(-c2ccc(F)cc2)cc1 (centres unmarked) [N, [2-(4'-fluoro-4-biphenyl)-2-oxo-ethylsulfinyl]acetic acid]	–	–	98	37	–	–	–	–	–	–
COC(=O)C[S+]([O-])C(C)c1ccc(-c2cccc(Cl)c2)cc1 (centres unmarked) [O, [1-(3'-chloro-4-biphenylyl)-ethylsulfinyl]-acetic acid methyl ester]	–	–	12	–	0 out of 5	–	–	66	76	> 250
COC(=O)C[S+]([O-])C(C)c1ccc(-c2ccccc2[N+](=O)[O-])cc1 (centres unmarked) [P, [1-(2'-nitro-4-biphenylyl)ethylsulfinyl]-acetic acid methyl ester]	–	–	15	–	0 out of 5	–	–	61	74	> 250
COC(=O)C[S+]([O-])C(C)c1ccc(-c2ccccc2F)c(F)c1 (centres unmarked) [Q, [1-(2,2'-difluoro-4-biphenylyl)-ethylsulfinyl]-acetic acid methyl ester]	–	–	73	–	0 out of 5	–	–	48	54	> 250
COC(=O)C[S+]([O-])C(C)c1ccc(-c2ccc(Br)cc2)c(F)c1 (centres unmarked) [R, [1-(2-fluoro-4'-bromo-4-biphenylyl)-ethylsulfinyl]-acetic acid methyl ester]	–	–	50	–	–	–	–	46	64	–
COC(=O)CS(=O)(=O)C(C)c1ccc(-c2ccccc2F)cc1 (centres unmarked) [S]	–	–	83	27	0 out of 5	–	–	45	66	> 250
CC(C)CCOC(=O)CS(=O)(=O)C(C)c1ccc(-c2ccccc2F)cc1 (centres unmarked) [T, [1-(2'-fluoro-4-biphenylyl)-ethylsulfonyl]-acetic acid isoamyl ester]	–	–	51	–	0 out of 5	–	–	76	83	> 250
CC(c1ccc(-c2ccccc2F)cc1)S(C)(=O)=O (centres unmarked) [U, [1-(2'-fluoro-4-biphenylyl)-ethyl]-methylsulfone]	–	–	56	–	0 out of 5	–	–	87	90	> 250
O=C(O)CS(=O)(=O)Cc1ccc(-c2ccc(Cl)cc2)cc1 [V, [(4'-chloro-4-biphenylyl)-methylsulfonyl]-acetic acid, reference compound]	–	–	3	–	3 out of 10	–	–	6	11	> 250
